Laboratory results from US9951292B2, “Grease composition” (TOTAL MARKETING SERVICES, priority 2011, dated 2018).

Tests used:
algae and daphnia = assay: Aquatic toxicity to algae and daphnia according to standards OECD 201 and 202; assay type: in vivo
Description: Preferably, the grease compositions according to the invention contain additives which are not hazardous to the environment and human health. Preferably, the grease compositions according to the invention are free from organic halogenated compounds, nitrite type compounds, metals or metallic compounds other than sodium, potassium, magnesium, calcium, lithium and/or aluminium. Preferably, the grease compositions according to the invention are not toxic to the aquatic environment. In particular the grease compositions according to the invention have an aquatic toxicity to algae, daphnia and fish of at least 1000 mg/l according to standards OECD 201, 202 and 203.
Similarly, the main constituents of the grease, i.e. those present at more than 5% by mass with respect to the total mass of the grease composition, such as the base oil and the soap, have an aquatic toxicity to algae and daphnia of at least 100 mg/l according to standards OECD 201 and 202.
Similarly, when a constituent has an aquatic toxicity to algae and daphnia of at least 100 mg/l according to standards OECD 201 and 202 (category D), said constituent can be present in the grease at any concentration. The grease compositions according to the invention have a concentration by mass of constituents having an aquatic toxicity to algae and daphnia comprised between 10 mg/l and 100 mg/l according to standards OECD 201 and 202 (category E), less than or equal to 25%. The grease compositions according to the invention have a concentration by mass of constituents having an aquatic toxicity to algae and daphnia comprised between 1 mg/l and 10 mg/l according to standards OECD 201 and 202 (category F), less than or equal to 2%, preferably less than or equal to 1%. This only concerns the constituents of the grease the concentration by mass in the grease of which is greater than or equal to 0.1%.

[1] = Biodegradability according to standard OECD 301B
Description: This only concerns the constituents of the grease the concentration by mass in the grease of which is greater than or equal to 0.1%.

Molecule | aquatic toxicity to algae and daphnia (algae and daphnia; in vivo) | aquatic toxicity to algae and daphnia (algae and daphnia; OECD 201 and 202) | aquatic toxicity to algae and daphnia, category (algae and daphnia; OECD 201 and 202) | biodegradability [1] [%]
CCCCCCCCCCCCCCCCCCOC(=O)CCc1cc(C(C)(C)C)c(O)c(C(C)(C)C)c1 [antioxidant 2, Octadecyl 3-(3,5-ditertiobutyl-4-hydroxyphenyl) propanoate] | over 100 mg/l |  |  | 
CCCCCCC(O)CCCCCCCCCCC(=O)[O-].[Li+] (centres unmarked) [lithium 12-hydroxystearate] |  | over 100 mg/l | D (aquatic toxicity to algae and daphnia of at least 100 mg/l according to standards OECD 201 and 202 (category D)) | 
Tolyltriazole [corrosion inhibitor 2] | 1 to 10 mg/L |  |  | 4
